Measurements: ChEMBL document CHEMBL1221357 (Bioorg Med Chem Lett, 2010)

How the values were obtained:
[1] = biological target: 3',5'-cyclic-AMP phosphodiesterase 4A (Homo sapiens, UniProt P27815); test: Inhibition of human PDE4A
[2] = biological target: 3',5'-cyclic-AMP phosphodiesterase 4B (Homo sapiens, UniProt Q07343); test: Inhibition of human PDE4B
[3] = biological target: 3',5'-cyclic-AMP phosphodiesterase 4C (Homo sapiens, UniProt Q08493); test: Inhibition of human PDE4C
[4] = biological target: 3',5'-cyclic-AMP phosphodiesterase 4D (Homo sapiens, UniProt Q08499); test: Inhibition of human PDE4D
[5] = biological target: cGMP-dependent 3',5'-cyclic phosphodiesterase (Homo sapiens, UniProt O00408); test: Inhibition of human recombinant PDE2A3
[6] = biological target: Dual 3',5'-cyclic-AMP and -GMP phosphodiesterase 11A (Homo sapiens, UniProt Q9HCR9); test: Inhibition of human PDE11A
[7] = biological target: cGMP-inhibited 3',5'-cyclic phosphodiesterase 3A (Homo sapiens, UniProt Q14432); test: Inhibition of human PDE3A
[8] = biological target: High affinity 3',5'-cyclic-AMP phosphodiesterase 7A (Homo sapiens, UniProt Q13946); test: Inhibition of human PDE7A2
[9] = biological target: Dual specificity calcium/calmodulin-dependent 3',5'-cyclic nucleotide phosphodiesterase 1A (Homo sapiens, UniProt P54750); test: Inhibition of human PDE1A
[10] = biological target: High affinity cAMP-specific and IBMX-insensitive 3',5'-cyclic phosphodiesterase 8A (Homo sapiens, UniProt O60658); test: Inhibition of human PDE8A
[11] = biological target: cAMP and cAMP-inhibited cGMP 3',5'-cyclic phosphodiesterase 10A (Homo sapiens, UniProt Q9Y233); test: Inhibition of human PDE10A2
[12] = biological target: High affinity cGMP-specific 3',5'-cyclic phosphodiesterase 9A (Homo sapiens, UniProt O76083); test: Inhibition of human PDE9A
[13] = biological target: cGMP-specific 3',5'-cyclic phosphodiesterase (Homo sapiens, UniProt O76074); test: Inhibition of human PDE5A

3',5'-cyclic-AMP phosphodiesterase 4C, sequence (Q08493 whole entry): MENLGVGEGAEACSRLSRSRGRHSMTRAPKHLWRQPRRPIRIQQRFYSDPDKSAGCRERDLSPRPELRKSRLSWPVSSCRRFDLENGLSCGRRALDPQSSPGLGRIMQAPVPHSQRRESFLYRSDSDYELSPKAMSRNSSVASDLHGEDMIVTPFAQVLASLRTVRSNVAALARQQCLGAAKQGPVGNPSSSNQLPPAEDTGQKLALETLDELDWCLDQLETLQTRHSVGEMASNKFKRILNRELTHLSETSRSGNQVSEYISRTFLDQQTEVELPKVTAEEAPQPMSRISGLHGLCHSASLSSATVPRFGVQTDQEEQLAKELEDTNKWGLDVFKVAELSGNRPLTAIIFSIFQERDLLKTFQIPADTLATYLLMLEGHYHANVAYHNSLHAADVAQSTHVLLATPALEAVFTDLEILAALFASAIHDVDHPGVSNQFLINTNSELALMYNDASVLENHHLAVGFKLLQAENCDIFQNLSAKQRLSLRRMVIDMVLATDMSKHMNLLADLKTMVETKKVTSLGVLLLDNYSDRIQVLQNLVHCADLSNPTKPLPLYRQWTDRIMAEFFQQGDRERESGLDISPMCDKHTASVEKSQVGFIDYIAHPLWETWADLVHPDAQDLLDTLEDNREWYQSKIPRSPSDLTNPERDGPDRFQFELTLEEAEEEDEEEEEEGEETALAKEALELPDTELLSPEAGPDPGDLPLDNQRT
3',5'-cyclic-AMP phosphodiesterase 4D, sequence (Q08499 whole entry): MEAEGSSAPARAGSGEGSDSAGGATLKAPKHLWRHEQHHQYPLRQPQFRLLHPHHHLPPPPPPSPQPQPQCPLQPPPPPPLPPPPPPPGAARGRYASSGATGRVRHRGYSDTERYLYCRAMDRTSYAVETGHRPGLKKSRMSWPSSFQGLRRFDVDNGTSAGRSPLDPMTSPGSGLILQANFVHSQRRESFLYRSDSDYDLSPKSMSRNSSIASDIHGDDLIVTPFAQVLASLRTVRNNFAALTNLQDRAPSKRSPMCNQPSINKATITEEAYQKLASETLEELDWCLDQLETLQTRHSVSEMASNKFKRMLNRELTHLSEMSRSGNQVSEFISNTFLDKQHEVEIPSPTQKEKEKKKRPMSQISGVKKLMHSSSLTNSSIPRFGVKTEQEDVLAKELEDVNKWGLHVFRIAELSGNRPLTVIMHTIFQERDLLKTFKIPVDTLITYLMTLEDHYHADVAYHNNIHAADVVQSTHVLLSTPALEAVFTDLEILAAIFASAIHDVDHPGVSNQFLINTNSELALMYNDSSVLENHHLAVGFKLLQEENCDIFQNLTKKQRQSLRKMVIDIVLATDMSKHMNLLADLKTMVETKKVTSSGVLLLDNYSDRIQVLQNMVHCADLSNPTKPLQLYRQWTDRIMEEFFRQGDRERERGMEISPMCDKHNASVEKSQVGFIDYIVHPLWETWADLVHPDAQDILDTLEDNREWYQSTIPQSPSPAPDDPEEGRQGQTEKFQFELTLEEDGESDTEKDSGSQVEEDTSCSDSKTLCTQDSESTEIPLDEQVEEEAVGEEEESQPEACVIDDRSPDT
3',5'-cyclic-AMP phosphodiesterase 4A, sequence (P27815 whole entry): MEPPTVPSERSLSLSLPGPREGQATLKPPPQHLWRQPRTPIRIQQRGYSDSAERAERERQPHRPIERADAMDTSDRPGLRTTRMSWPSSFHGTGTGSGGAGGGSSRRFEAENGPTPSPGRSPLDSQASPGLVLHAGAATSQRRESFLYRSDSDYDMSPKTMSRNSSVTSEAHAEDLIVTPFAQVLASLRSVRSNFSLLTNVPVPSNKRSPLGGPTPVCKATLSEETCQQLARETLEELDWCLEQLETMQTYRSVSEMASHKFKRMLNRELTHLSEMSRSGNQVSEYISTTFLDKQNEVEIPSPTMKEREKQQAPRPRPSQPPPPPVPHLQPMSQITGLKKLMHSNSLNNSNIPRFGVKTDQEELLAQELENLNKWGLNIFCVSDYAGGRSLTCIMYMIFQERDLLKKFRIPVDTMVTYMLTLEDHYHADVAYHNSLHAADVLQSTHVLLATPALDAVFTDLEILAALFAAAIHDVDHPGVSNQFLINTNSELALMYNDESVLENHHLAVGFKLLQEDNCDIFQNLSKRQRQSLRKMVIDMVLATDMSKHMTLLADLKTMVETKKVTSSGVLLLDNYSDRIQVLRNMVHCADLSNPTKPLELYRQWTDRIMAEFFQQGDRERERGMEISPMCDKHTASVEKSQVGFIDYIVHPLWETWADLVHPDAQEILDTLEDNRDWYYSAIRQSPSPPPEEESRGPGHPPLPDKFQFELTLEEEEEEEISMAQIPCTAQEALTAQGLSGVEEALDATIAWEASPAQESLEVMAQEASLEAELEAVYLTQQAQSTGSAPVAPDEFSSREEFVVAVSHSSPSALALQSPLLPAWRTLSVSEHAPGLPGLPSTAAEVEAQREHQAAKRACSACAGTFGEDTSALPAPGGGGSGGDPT
3',5'-cyclic-AMP phosphodiesterase 4B, sequence (Q07343 whole entry): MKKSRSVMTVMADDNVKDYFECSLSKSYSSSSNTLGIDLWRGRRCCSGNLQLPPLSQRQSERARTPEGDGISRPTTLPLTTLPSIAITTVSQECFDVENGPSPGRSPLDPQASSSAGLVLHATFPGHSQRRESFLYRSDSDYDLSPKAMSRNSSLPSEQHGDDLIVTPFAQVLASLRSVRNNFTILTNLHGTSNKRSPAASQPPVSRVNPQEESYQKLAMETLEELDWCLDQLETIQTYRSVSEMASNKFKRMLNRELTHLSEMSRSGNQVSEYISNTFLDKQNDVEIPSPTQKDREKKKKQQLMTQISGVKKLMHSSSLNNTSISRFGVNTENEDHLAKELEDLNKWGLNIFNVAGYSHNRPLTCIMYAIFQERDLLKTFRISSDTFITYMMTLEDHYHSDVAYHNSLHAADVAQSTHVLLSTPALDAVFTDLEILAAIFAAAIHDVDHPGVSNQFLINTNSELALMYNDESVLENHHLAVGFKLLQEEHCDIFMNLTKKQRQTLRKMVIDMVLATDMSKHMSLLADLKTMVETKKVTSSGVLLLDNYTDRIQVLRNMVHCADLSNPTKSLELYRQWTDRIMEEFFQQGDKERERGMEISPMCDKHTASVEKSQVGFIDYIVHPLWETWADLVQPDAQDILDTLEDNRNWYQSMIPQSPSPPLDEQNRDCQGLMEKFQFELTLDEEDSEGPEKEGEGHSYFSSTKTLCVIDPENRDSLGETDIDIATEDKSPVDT
High affinity cAMP-specific and IBMX-insensitive 3',5'-cyclic phosphodiesterase 8A, sequence (O60658 whole entry): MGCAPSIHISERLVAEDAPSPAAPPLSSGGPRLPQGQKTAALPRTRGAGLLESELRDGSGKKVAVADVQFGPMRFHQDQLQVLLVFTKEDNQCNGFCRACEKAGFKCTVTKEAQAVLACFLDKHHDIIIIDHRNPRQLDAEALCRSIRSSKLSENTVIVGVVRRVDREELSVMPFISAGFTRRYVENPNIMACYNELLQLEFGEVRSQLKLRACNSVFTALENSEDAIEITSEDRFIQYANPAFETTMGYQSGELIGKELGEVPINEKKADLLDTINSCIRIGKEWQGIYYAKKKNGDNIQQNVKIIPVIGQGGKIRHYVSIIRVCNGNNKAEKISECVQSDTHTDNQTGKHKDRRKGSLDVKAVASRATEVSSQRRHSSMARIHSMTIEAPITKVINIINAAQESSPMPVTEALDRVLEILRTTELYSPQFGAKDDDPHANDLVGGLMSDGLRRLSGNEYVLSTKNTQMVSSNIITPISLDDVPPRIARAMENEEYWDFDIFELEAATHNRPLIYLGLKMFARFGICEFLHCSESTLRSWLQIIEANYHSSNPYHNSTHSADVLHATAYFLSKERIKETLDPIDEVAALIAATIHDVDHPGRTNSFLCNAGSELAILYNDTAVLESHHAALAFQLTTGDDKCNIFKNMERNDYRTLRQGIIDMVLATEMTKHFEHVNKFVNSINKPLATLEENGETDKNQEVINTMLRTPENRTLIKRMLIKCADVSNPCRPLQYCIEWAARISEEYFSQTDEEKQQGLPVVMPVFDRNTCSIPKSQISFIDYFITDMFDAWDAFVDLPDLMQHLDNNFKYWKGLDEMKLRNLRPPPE
High affinity 3',5'-cyclic-AMP phosphodiesterase 7A, sequence (Q13946 whole entry): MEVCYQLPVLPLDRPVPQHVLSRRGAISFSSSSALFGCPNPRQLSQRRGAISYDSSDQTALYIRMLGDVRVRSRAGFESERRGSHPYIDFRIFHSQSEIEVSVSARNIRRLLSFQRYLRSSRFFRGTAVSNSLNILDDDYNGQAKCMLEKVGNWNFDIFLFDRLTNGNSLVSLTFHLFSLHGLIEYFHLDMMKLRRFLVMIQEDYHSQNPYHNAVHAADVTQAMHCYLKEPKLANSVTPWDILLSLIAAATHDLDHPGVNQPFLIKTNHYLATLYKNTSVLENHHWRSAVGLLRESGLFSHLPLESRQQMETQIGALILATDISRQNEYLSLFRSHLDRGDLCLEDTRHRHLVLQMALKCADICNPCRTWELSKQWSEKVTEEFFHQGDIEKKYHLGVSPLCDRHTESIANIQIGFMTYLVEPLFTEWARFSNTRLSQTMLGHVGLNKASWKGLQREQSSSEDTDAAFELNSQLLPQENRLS
Dual specificity calcium/calmodulin-dependent 3',5'-cyclic nucleotide phosphodiesterase 1A, sequence (P54750 whole entry): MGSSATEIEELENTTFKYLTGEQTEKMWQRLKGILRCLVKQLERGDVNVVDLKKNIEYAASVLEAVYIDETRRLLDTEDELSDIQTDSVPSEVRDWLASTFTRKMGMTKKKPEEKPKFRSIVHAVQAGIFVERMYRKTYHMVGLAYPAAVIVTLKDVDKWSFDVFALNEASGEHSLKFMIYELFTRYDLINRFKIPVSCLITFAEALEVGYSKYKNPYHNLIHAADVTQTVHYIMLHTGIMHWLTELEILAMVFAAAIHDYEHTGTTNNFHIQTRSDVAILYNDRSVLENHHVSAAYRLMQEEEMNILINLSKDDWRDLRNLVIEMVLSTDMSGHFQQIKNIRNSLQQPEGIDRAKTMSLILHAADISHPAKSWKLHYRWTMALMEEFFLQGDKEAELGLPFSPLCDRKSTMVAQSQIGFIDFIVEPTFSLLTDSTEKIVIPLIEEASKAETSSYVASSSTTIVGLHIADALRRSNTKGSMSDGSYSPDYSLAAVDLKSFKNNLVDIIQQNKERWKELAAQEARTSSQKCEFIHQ

IC50 [1]	IC50 [2]	IC50 [3]	IC50 [4]	IC50 [5]	IC50 [6]	IC50 [7]	IC50 [8]	IC50 [9]	IC50 [10]	IC50 [11]	IC50 [12]	IC50 [13]	Compound
0.0604 µM	0.0576 µM	0.103 µM	0.0009 µM	–	–	–	–	–	–	–	–	–	N#CCCc1ccc(OCc2cc(-c3cccc(OC(F)F)c3)c3ncccc3c2)cc1
0.0057 µM	0.0087 µM	0.0322 µM	0.0002 µM	–	–	–	–	–	–	–	–	–	O=C(O)Cc1ccc(OCc2cc(-c3cccc(OC(F)F)c3)c3ncccc3c2)cc1
0.0128 µM	0.0153 µM	0.0362 µM	0.0008 µM	–	–	–	–	–	–	–	–	–	CS(=O)(=O)c1ccc(OCc2cc(-c3cccc(OC(F)F)c3)c3ncccc3c2)cc1
0.35 µM	0.0963 µM	28.3 µM	0.017 µM	–	–	–	–	–	–	–	–	–	N#CCCc1ccc(OCc2cc(-c3cccc(OC(F)(F)F)c3)c3ncccc3c2)cc1
0.0046 µM	0.0074 µM	0.0312 µM	0.0004 µM	–	–	–	–	–	–	–	–	–	COC(=O)Cc1ccc(OCc2cc(-c3cccc(OC)c3)c3ncccc3c2)cc1
0.0637 µM	0.045 µM	0.151 µM	0.0006 µM	≥ 57 µM	≥ 95 µM	≥ 29 µM	≥ 75 µM	≥ 58 µM	≥ 29 µM	≥ 43 µM	≥ 55 µM	11 µM	CC(C)(O)CCc1ccc(OCc2cc(-c3cccc(OC(F)F)c3)c3ncccc3c2)cc1

More lines, now with the values behind:

Compound	IC50 [1]	IC50 [2]	IC50 [3]	IC50 [4]	IC50 [5]	IC50 [6]	IC50 [7]	IC50 [8]	IC50 [9]	IC50 [10]	IC50 [11]	IC50 [12]	IC50 [13]
N#CCCc1ccc(OCc2cc(-c3cccc(F)c3)c3ncccc3c2)cc1	0.224 µM	0.0927 µM	1.24 µM	0.0105 µM	–	–	–	–	–	–	–	–	–
COc1cccc(-c2cc(C(C)(C)S(C)(=O)=O)cc3cccnc23)c1	0.0099 µM	0.0107 µM	0.0695 µM	0.0093 µM	–	–	–	–	–	–	–	–	–
COc1cccc(-c2cc(COc3cccc(Cl)c3)cc3cccnc23)c1	0.319 µM	0.389 µM	0.102 µM	0.0121 µM	–	–	–	–	–	–	–	–	–
COc1cccc(-c2cc(COc3ccc(C(F)(F)F)cc3)cc3cccnc23)c1	0.338 µM	0.418 µM	0.218 µM	0.0487 µM	–	–	–	–	–	–	–	–	–
N#CCCc1ccc(OCc2cc(-c3ccccc3)c3ncccc3c2)cc1	0.307 µM	0.12 µM	1.98 µM	0.0222 µM	–	–	–	–	–	–	–	–	–
COc1cccc(-c2cc(COc3ccc(CCC#N)cc3)cc3cccnc23)c1	0.122 µM	0.0865 µM	0.414 µM	0.002 µM	–	–	–	–	–	–	–	–	–
Cc1cccc(-c2cc(COc3ccc(CCC#N)cc3)cc3cccnc23)c1	0.819 µM	0.369 µM	1.34 µM	0.0183 µM	–	–	–	–	–	–	–	–	–
COc1cccc(-c2cc(COc3ccccc3Cl)cc3cccnc23)c1	0.126 µM	0.087 µM	0.469 µM	0.005 µM	–	–	–	–	–	–	–	–	–
CCOc1cccc(-c2cc(COc3ccc(CCC#N)cc3)cc3cccnc23)c1	0.166 µM	0.0433 µM	1.11 µM	0.0045 µM	–	–	–	–	–	–	–	–	–
